# Patent publication US20260217692A1 (Ascentage Pharma (Suzhou) Co., Ltd., priority 2023, published 2026)
# Values joined by “and” are separate entries in the source; they are usually repeats but may differ in a detail not shown here. Equal values may be shown once. Where a name gives a salt, the structure may show the parent alone.
# Columns and labels:
# Assay type in all cases: physicochemical
# [1] = Polymorph screening test, suspension method (crystal form by XRPD after stirring in solvent); details: for Crystal form (XRPD): free base screening, 3 days
# Protocol: (or 50° C.) for 3 days in the dark and centrifuged to remove the supernatant; the resulting precipitate was dried under vacuum (25° C., −0.1 MPa); and the resulting solid was collected and subjected to the XRPD test. The results are as follows:
# (or 50° C./80° C.) for 3 days in the dark and centrifuged to remove the supernatant; and the resulting precipitate was dried under vacuum (25° C., −0.1 MPa).
# (or 50° C.) for 3 days in the dark and centrifuged to remove the supernatant; and the resulting precipitate was dried under vacuum (25° C., −0.1 MPa).
# [2] = Dynamic vapor sorption (DVS) hygroscopicity test; details: 25° C. and 80% RH
# Source text: In the present disclosure, the DVS test parameters are set as follows: [table]
# [3] = Stability of crystal forms under stability test conditions (appearance, XRPD, HPLC); details: for Total impurities: HPLC
# Protocol: The samples were placed under the stability conditions shown in the following table, sampling was performed at the corresponding time points, and the samples were subjected to appearance and XRPD tests. […] The stability results obtained are recorded in the following table. […] The samples were placed under the stability test conditions shown in the following table, sampling was performed at different time points, and the samples were subjected to the XRPD test. […] The samples were placed in an open state under the stability test conditions of 40° C./75% RH and 90% RH; and the samples were placed in a closed state at 60° C. in a light box (the test samples in the dark were placed in the same manner as the illumination test samples, and the treatment was performed in the dark). Sampling was performed at different time points, and the samples were subjected to the XRPD test. […] The samples were placed under the stability conditions shown in the following table, sampling was performed at the corresponding time points, and the samples were subjected to appearance and XRPD tests. […] The stability results obtained are recorded in the following table.
# [4] = 0 d, listed as Crystal form D of the compound represented by formula I
smiles,measurement,setting,value
Cc1cc(Nc2ncc(Cl)c(Nc3ccccc3S(=O)(=O)C(C)C)n2)c(OC(C)C)cc1C1=CCN(C2CCOCC2)CC1,Crystal form (XRPD),"[1]; suspension in 1,4-Dioxane, 25° C.",Crystal form G
same,Crystal form (XRPD),"[1]; suspension in 1,4-Dioxane, 50° C.",Crystal form D
same,Crystal form (XRPD),"[1]; suspension in 2-MeTHF, 25° C.",Crystal form D
same,Crystal form (XRPD),"[1]; suspension in 2-MeTHF, 50° C.",Crystal form D
same,Crystal form (XRPD),"[1]; suspension in ACN/water (1/1, v/v), 25° C.",Crystal form D
same,Crystal form (XRPD),"[1]; suspension in ACN/water (1/1, v/v), 50° C.",Crystal form D
same,Crystal form (XRPD),"[1]; suspension in Acetone, 25° C.",Crystal form E
same,Crystal form (XRPD),"[1]; suspension in Acetone, 50° C.",Crystal form E
same,Crystal form (XRPD),"[1]; suspension in Acetone/water (1:1, v/v), 25° C.",Crystal form D
same,Crystal form (XRPD),"[1]; suspension in Acetone/water (1:1, v/v), 50° C.",Crystal form D
same,Crystal form (XRPD),"[1]; suspension in Acetonitrile, 25° C.",Crystal form D
same,Crystal form (XRPD),"[1]; suspension in Acetonitrile, 50° C.",Crystal form D
same,Crystal form (XRPD),"[1]; suspension in Cyclohexane, 25° C.",Crystal form D
same,Crystal form (XRPD),"[1]; suspension in Cyclohexane, 50° C.",Crystal form D
same,Crystal form (XRPD),"[1]; suspension in Dichloromethane, 25° C.",No solid sample was obtained
same,Crystal form (XRPD),"[1]; suspension in Dichloromethane, 50° C.",No solid sample was obtained
same,Crystal form (XRPD),"[1]; suspension in Ethanol, 25° C.",Crystal form B
same,Crystal form (XRPD),"[1]; suspension in Ethanol, 50° C.",Crystal form D
same,Crystal form (XRPD),"[1]; suspension in Ethyl acetate, 25° C.",Crystal form D
same,Crystal form (XRPD),"[1]; suspension in Ethyl acetate, 50° C.",Crystal form D
same,Crystal form (XRPD),"[1]; suspension in Isopropanol, 25° C.",Crystal form C
same,Crystal form (XRPD),"[1]; suspension in Isopropanol, 50° C.",Crystal form D
same,Crystal form (XRPD),"[1]; suspension in Isopropyl acetate, 25° C.",Crystal form D
same,Crystal form (XRPD),"[1]; suspension in Isopropyl acetate, 50° C.",Crystal form D
same,Crystal form (XRPD),"[1]; suspension in MA, 25° C.",Crystal form D
same,Crystal form (XRPD),"[1]; suspension in MA, 50° C.",Crystal form D
same,Crystal form (XRPD),"[1]; suspension in MEK, 25° C.",Crystal form D
same,Crystal form (XRPD),"[1]; suspension in MEK, 50° C.",Crystal form D
same,Crystal form (XRPD),"[1]; suspension in MIBK, 25° C.",Crystal form D
same,Crystal form (XRPD),"[1]; suspension in MIBK, 50° C.",Crystal form D
same,Crystal form (XRPD),"[1]; suspension in MeOH/water (1:1, v/v), 25° C.",Crystal form D
same,Crystal form (XRPD),"[1]; suspension in MeOH/water (1:1, v/v), 50° C.",Crystal form D
same,Crystal form (XRPD),"[1]; suspension in Methanol, 25° C.",Crystal form A
same,Crystal form (XRPD),"[1]; suspension in Methanol, 50° C.",Crystal form I
same,Crystal form (XRPD),"[1]; suspension in Methyl tert-butyl ether, 25° C.",Crystal form D
same,Crystal form (XRPD),"[1]; suspension in Methyl tert-butyl ether, 50° C.",Crystal form C
same,Crystal form (XRPD),"[1]; suspension in Tetrahydrofuran, 25° C.",Crystal form F
same,Crystal form (XRPD),"[1]; suspension in Tetrahydrofuran, 50° C.",No solid sample was obtained
same,Crystal form (XRPD),"[1]; suspension in Toluene, 25° C.",Crystal form D
same,Crystal form (XRPD),"[1]; suspension in Toluene, 50° C.",No solid sample was obtained
same,Crystal form (XRPD),"[1]; suspension in Water, 25° C.",Crystal form H
same,Crystal form (XRPD),"[1]; suspension in Water, 50° C.",Crystal form J
same,Crystal form (XRPD),"[1]; suspension in n-Heptane, 25° C.",Crystal forms C + D
same,Crystal form (XRPD),"[1]; suspension in n-Heptane, 50° C.",Crystal forms C + D
same,Crystal form (XRPD),"[1]; suspension in n-Hexane, 25° C.",Crystal form D
same,Crystal form (XRPD),"[1]; suspension in n-Hexane, 50° C.",Crystal form D
Cc1cc(Nc2ncc(Cl)c(Nc3ccccc3S(=O)(=O)C(C)C)n2)c(OC(C)C)cc1C1=CCN(C2CCOCC2)CC1 [crystal form D],hygroscopic weight gain (DVS curve),[2],0.14±0.005% and 0.14%
same,XRPD,[3]; 0 d,No significant change
same,Total impurities,[3]; [4],0.14%
same,Appearance,[3]; [4],No significant change
same,Total impurities,"[3]; 25° C./60% RH, 1 M",0.17%
same,Total impurities,"[3]; 25° C./60% RH, 10 d",0.14%
same,Appearance,"[3]; 25° C./60% RH, 10 d and 1 M",No significant change
same,XRPD,"[3]; 25° C./60% RH, 10 d and 1 M",No significant change
same,Total impurities,"[3]; 40° C./75% RH, 1 M, listed as Crystal form D of the compound represented by formula I",0.17%
same,Total impurities,"[3]; 40° C./75% RH, 10 d, listed as Crystal form D of the compound represented by formula I",0.17%
same,XRPD,"[3]; 40° C./75% RH, 10 d and 1 M",No significant change
same,Appearance,"[3]; 40° C./75% RH, 10 d and 1 M, listed as Crystal form D of the compound represented by formula I",No significant change
same,Total impurities,"[3]; 60° C., 1 M, listed as Crystal form D of the compound represented by formula I",0.20%
same,Total impurities,"[3]; 60° C., 10 d, listed as Crystal form D of the compound represented by formula I",0.17%
same,XRPD,"[3]; 60° C., 10 d and 1 M",No significant change
same,Appearance,"[3]; 60° C., 10 d and 1 M, listed as Crystal form D of the compound represented by formula I",No significant change
same,Total impurities,"[3]; 90% RH, 1 M, listed as Crystal form D of the compound represented by formula I",0.17%
same,Total impurities,"[3]; 90% RH, 10 d, listed as Crystal form D of the compound represented by formula I",0.17%
same,XRPD,"[3]; 90% RH, 10 d and 1 M",No significant change
same,Appearance,"[3]; 90% RH, 10 d and 1 M, listed as Crystal form D of the compound represented by formula I",No significant change
same,Total impurities,"[3]; Illumination, 5 d, listed as Crystal form D of the compound represented by formula I",0.17%
same,Appearance,"[3]; Illumination, 5 d and 10 d",Color deepening
same,XRPD,"[3]; Illumination, 5 d and 10 d",No significant change
same,Total impurities,"[3]; Illumination, 10 d, listed as Crystal form D of the compound represented by formula I",2.43%
same,Total impurities,"[3]; In the dark, 5 d, listed as Crystal form D of the compound represented by formula I",0.17%
same,XRPD,"[3]; In the dark, 5 d and 10 d",No significant change
same,Appearance,"[3]; In the dark, 5 d and 10 d, listed as Crystal form D of the compound represented by formula I",No significant change
same,Total impurities,"[3]; In the dark, 10 d, listed as Crystal form D of the compound represented by formula I",0.14%
Cc1cc(Nc2ncc(Cl)c(Nc3ccccc3S(=O)(=O)C(C)C)n2)c(OC(C)C)cc1C1=CCN(C2CCOCC2)CC1 [one equivalent of citrate crystal form B],"stability of crystal form in solvents, citrate polymorph screening test",[1]; in solvents,relatively good stability
same,crystal form when stirred in solvent,"[1]; methanol, ethanol, acetonitrile, acetone, ethyl acetate, dichloromethane, tetrahydrofuran, n-heptane, dioxane, or mixed solvent of methanol, acetonitrile, or acetone with water, 40° C.",remained stable
same,Total impurities,[3]; 0 d,0.18%
same,Total impurities,"[3]; 40° C./75% RH, 1 M",0.19%
same,Total impurities,"[3]; 40° C./75% RH, 10 d",0.19%
same,Total impurities,"[3]; 60° C., 1 M",0.22%
same,Total impurities,"[3]; 60° C., 10 d",0.19%
same,Total impurities,"[3]; 90% RH, 1 M",0.19%
same,Total impurities,"[3]; 90% RH, 10 d",0.18%
same,Total impurities,"[3]; Illumination, 5 d",0.48%
same,Appearance,"[3]; Illumination, 5 d and 10 d",Color deepening
same,Total impurities,"[3]; Illumination, 10 d",0.55%
Cc1cc(Nc2ncc(Cl)c(Nc3ccccc3S(=O)(=O)C(C)C)n2)c(OC(C)C)cc1C1=CCN(C2CCOCC2)CC1.Cl,hygroscopic weight gain (DVS curve),[2],0.15%
same,Appearance,[3]; 0 d,Pale yellow powder
same,Total impurities,[3]; 0 d,0.10%
same,Total impurities,"[3]; 40° C./75% RH, 5 d",0.18%
same,Total impurities,"[3]; 40° C./75% RH, 10 d",0.53%
same,Appearance,"[3]; 40° C./75% RH, 30 d",Color deepening
same,Total impurities,"[3]; 40° C./75% RH, 30 d",1.09%
same,Total impurities,"[3]; 60° C., 5 d",0.15%
same,Total impurities,"[3]; 60° C., 10 d",0.23%
same,Total impurities,"[3]; 60° C., 30 d",0.21%
same,Total impurities,"[3]; 90% RH, 5 d",0.17%
same,Total impurities,"[3]; 90% RH, 10 d",0.28%
same,Appearance,"[3]; 90% RH, 30 d",Color deepening
same,Total impurities,"[3]; 90% RH, 30 d",0.41%
same,Total impurities,"[3]; Illumination (1 ICH), 5 d",0.39%
same,Appearance,"[3]; Illumination (1 ICH), 5 d and 10 d",Color deepening
same,Total impurities,"[3]; Illumination (1 ICH), 10 d",0.51%
same,Total impurities,"[3]; In the dark, 5 d",0.07%
same,Total impurities,"[3]; In the dark, 10 d",0.16%
Cc1cc(Nc2ncc(Cl)c(Nc3ccccc3S(=O)(=O)C(C)C)n2)c(OC(C)C)cc1C1=CCN(C2CCOCC2)CC1 [crystal form C],hygroscopic weight gain (DVS curve),[2],0.31±0.005%
